Measurements published in US12312346B2, “Pyridopyrimidine compounds and methods of their use” (Tufts Medical Center, Inc., priority 2018, dated 2025).
Entries after “also recorded” stand apart in the source; their conditions may differ.

How the values were obtained:
[1] = tested on: human leukemia cell line HPBALL (with Notch1 mutations); assay: Cell cycle (PI staining, S-G2-M cells) and cell number, HPBALL; type: cell-based
Description: FIG. 1A is a series of charts showing representative cell cycle profiles of human leukemia cell line HPBALL (with Notch1 mutations) treated with a vehicle (V) (for ribociclib (LEE) or compound GD) or LEE or compound GD for 6 days at 1, 5, 10, and 20 μM.
FIG. 1B is a histogram summarizing the cell cycle distribution of the HPBALL cell line treated with compound GD, as described for FIG. 1A. Data shown are mean±S.D. (n=6); *P<0.05 vs its vehicle controls, t-test.
FIG. 1C is a histogram summarizing the cell cycle distribution of the HPBALL cell line treated with ribociclib (LEE), as described for FIG. 1A. Data shown are mean±S.D. (n=6); *P<0.05 vs its vehicle controls, t-test.
FIG. 1D is a chart the percentage of S-G2-M cells in FIGS. 1B and 1C. IC50 is the concentration of an inhibitor where the response (here is the inhibition of proliferation) is reduced by half.
FIG. 1E is a bar graph summarizing the cell numbers of HPBALL cells treated with either GD with different doses or LEE (20 μM) for 6 days. Data shown are mean±S.D. (n=6); *P<0.05 vs vehicles (0) control, t-test.
HCl salt of 6-acetyl-5-methyl-2-((4-(piperazin-1-ylmethyl)thiazol-2-yl)amino)pyrido[2,3-d]pyrimidin-7(8H)-one (Compound GD) prepared in Example 1 was examined for its inhibitory activity in cancer cell lines and WT and CDK6^−/− mouse embryonic fibroblasts (MEFs) and stromal vascular fractions (SVFs). […]
(§1) Table 2: Experimental Procedures: sensitivity to CDK6 kinase activity inhibition was tested by incubating different cell lines in the presence of CDK6 inhibitor GD007/PBS for either 24 hours for detecting the status of pRB-780 phosphorylation, or 5 days for determining the effect of GD007 on cell proliferation. (1) By immunoblotting (WB), we will detect phospho-pRB-S^780, one of the substrates of CDK6 kinase; (2) By using FACS analysis, we will stain treated cells with Propidium Iodide (PI), a commonly used fluorescent intercalator, to measure the subpopulation of cell cycle to reveal any impact of CDK6 inhibition on cell proliferation; (3) cell numbers will be counted using hemocytometer.

[2] = tested on: human lung cancer cell line A549; assay: Cell cycle (PI staining, S-G2-M cells) and pRB immunoblot, A549; type: cell-based
Description: FIG. 4A is a series of charts showing representative cell cycle profiles of human lung cancer cell line A549 treated with a vehicle (V) (for palbociclib (PD) or compound GD), PD (0.5 μM), or compound GD at 0.005, 0.05, 0.5, and 5 μM for 6 days.
FIG. 4B is a histogram showing the cell cycle distribution of A549 cell line in FIG. 4A. Data shown are mean±S.D. (n=6); *P<0.05 vs its vehicle controls, t-test.
FIG. 4C is a chart showing the percentage of S-G2-M cells in FIG. 4B. IC50 for compound GD is ca. 0.05 μM.
FIG. […] Tubulin was used as a loading control.
as §1

[3] = tested on: mouse KO-MEFs (CDK6^−/− MEFs); assay: Cell cycle and cell number, CDK6-/- MEFs (KO-MEFs); type: cell-based
Description: FIG. 6E is a series of charts showing representative cell cycle profiles of mouse KO-MEFs treated with a vehicle (V), PD (0.5 μM), or compound GD at 1, 5, 10, and 20 μM for 6 days.
FIG. 6F is a histogram summarizing the cell cycle distribution in FIG. 6E. Data shown are mean±S.D. (n=6); *P<0.05 vs its vehicle control, t-test.
FIG. 6G is a bar graph summarizing the cell numbers of KO-MEFs treated with PD (0.5 μM) or compound GD at different doses for 6 days. Data shown are mean±S.D. (n=6); *P<0.05 vs its vehicle control, t-test.
(§2) HCl salt of 6-acetyl-5-methyl-2-((4-(piperazin-1-ylmethyl)thiazol-2-yl)amino)pyrido[2,3-d]pyrimidin-7(8H)-one (Compound GD) prepared in Example 1 was examined for its inhibitory activity in cancer cell lines and WT and CDK6^−/− mouse embryonic fibroblasts (MEFs) and stromal vascular fractions (SVFs). MEFs and SVFs are enriched with mesenchymal stem cells (MSC) and pre-adipocytes which can differentiate into a variety of cell types, including adipocytes.

mouse WT SVFs = assay: Cell number, WT-SVFs; type: cell-based; settings: 6 days; GD 0.1-10 μM
Description: FIG. 7A is a bar graph showing the cell numbers of WT-SVFs treated with LEE (10 μM) or compound GD at 0.1, 0.5, 1.0, 5.0, and 10 μM for 6 days. Data shown are mean±S.D. (n=6); *P<0.05 vs its vehicle control, t-test.
as §2

[4] = tested on: phosphorylated pRB at SER-780 in HPAC-1 cells; assay: Immunoblot of phosphorylated pRB (SER-780) and PI staining, HPAC-1; type: cell-based
Description: FIG. 5D is an image of a representative immunoblot showing the levels of phosphorylated pRB at SER-780 in HPAC-1 cells following treatment of these cells with a vehicle, PD, or compound GD for 24 hours. Tubulin was used as loading control.
as §1

[5] = tested on: phosphorylated pRB at SER-780 in HELA cells; assay: Immunoblot of phosphorylated pRB (SER-780), HELA; type: cell-based
Description: FIG. 5E is an image of a representative immunoblot showing the levels of phosphorylated pRB at SER-780 in HELA cells following treatment of these cells with a vehicle, PD, or compound GD for 24 hours. Tubulin was used as loading control.
as §1

[6] = Fat pad mass and body weight of WT mice on normal chow diet; type: in vivo; settings: WT (B6) mice, NCD
Description: FIGS. 9A and 9B are images showing a close view of the iWAT (FIG. 9A) and eWAT (FIG. 9B) and mass of fat pads from mice treated with GD or PBS, as indicated. The mass of various fat pads was normalized to body weight of mice on NCD at the end of experiments. Data shown are mean±S.D. (n=8 for each group), *p<0.05, t-test, GD vs PBS.
FIG. 9D is a graph showing body weight of age-matched female WT mice on NCD over 27-day observation period. GD/PBS commenced by gavage daily for 21 days at 200 mg/kg/day at age of 6-weeks-old. Body weight shown are mean±S.D. (n=8 for each group), *p<0.05, t-test, GD vs PBS.

Prostate Cancer: DU145 = assay: pRB-780 immunoblot, DU145; type: cell-based; settings: WB: P-RB-780
Description: as §1

[7] = 200 mg/kg/day for 21 days, normalized to body weight

Compound: CC(=O)c1c(C)c2cnc(Nc3nc(CN4CCNCC4)cs3)nc2[nH]c1=O [Compound GD, 6-acetyl-5-methyl-2-((4-(piperazin-1-ylmethyl)thiazol-2-yl)amino)pyrido[2,3-d]pyrimidin-7(8H)-one]
- IC50 ([1]; Homo sapiens, 144 h, HPBALL, 6 days, read-out: IC50 (inhibition of proliferation, percentage of S-G2-M cells)): ~4000 nM
- Compound GD Efficacy ([1]; Leukemic cells: HPBALL, PI Staining, and cell number counting): Efficacious
- growth of lung cancer cell line A549 ([2]; FIGS. 4A-4D): inhibits growth
- IC50 ([2]; Homo sapiens, 144 h, A549, 6 days, read-out: IC50 (percentage of S-G2-M cells)): ~50 nM
- Compound GD Efficacy ([2]; Lung Cancer: A549, WB: P-RB-780, PI staining): Efficacious
- proliferation of CDK6−/− MEFs ([3]; 6 days, GD 1-20 μM, PD 0.5 μM): little effect
- preference for CDK6 over CDK4 ([3]; concluded from WT versus CDK6−/− MEFs and SVFs): preferentially inhibits CDK6 over CDK4
- proliferation of mouse WT SVFs (mouse WT SVFs): inhibited proliferation
- Compound GD Efficacy ([4]; Pancreas Cancer: HPAC, WB and PI staining): Efficacious
- pRB phosphorylation ([4]; pancreas adenocarcinoma (HPAC-1), 24 hours): inhibits pRB phosphorylation
- Compound GD Efficacy ([5]; Cervical Cancer: Hela, WB: P-RB-780): Efficacious
- pRB phosphorylation ([5]; cervical cancer cell line (Hela cells), 24 hours): inhibits pRB phosphorylation
- body weight, most significant reduction compared to PBS treated mice ([6]; 200 mg/kg/day): 7.1 % reduction
- fat pad mass vs PBS-treated mice ([6]; 200 mg/kg/day by gavage for 21 days, 200 mg/kg/day): dramatically and significantly decreased; also recorded: reduced fat mass
- fat pad mass, eWAT, reduction vs PBS-treated mice [6, 7]: ~2.0 fold reduction
- fat pad mass, iWAT, reduction vs PBS-treated mice [6, 7]: ~1.42 fold reduction
- Compound GD Efficacy (Prostate Cancer: DU145): No
